# Measurements as given in patent US20230220021A1, “CYCLIC PEPTIDE INHIBITORS OF PSD-95 AND USES THEREOF” (University of Copenhagen, priority 2020, published 2023).
# Where a SMILES comes first, the peptide text is derived from it. [ ]: non-standard residue; d: D form.
# Columns and labels:
# PSD-95-PDZ2 [1] = molecular target: T1, PSD-95-PDZ2 (Homo sapiens, UniProt P78352); experiment: Fluorescence polarization (FP) competition assay against cyclic nNOS TAMRA probe; format: binding; conditions: for Ki: FP competition, cyclic nNOS TAMRA probe, mean of triplicates, N.B. = not binding, read-out: Ki; for Relative Ki (Ki mut/Ki WT): FP inhibition constant normalized to WT value
# T1 construct: 7xHis (N); made in house; host or cells: Escherichia coli B21 pLys (for the mutants, 'as previously described')
# PSD-95-PDZ2 [2] = molecular target: T2, PSD-95-PDZ2 (Homo sapiens, UniProt P78352, V178C); experiment: SPOT peptide array screening with TAMRA labelled PSD-95-PDZ2; format: binding; conditions: SPOT array, TAMRA labelled PSD-95-PDZ2-V178C, normalized to WT
# T2 construct: screened with the TAMRA labelled PSD-95-PDZ2-V178C domain; 7xHis (N); made in house
# Protocol: SPOT peptide array synthesis. To generate the cyclic nNOSβ-hairpin arrays, we used the Intavis MultiPep spotter (Intavis Bioanalytical instruments). The membranes employed in this assay were SynthoPlan APEG CE (standard amino-modified acid stable sellulose membrane with a PEG-spacer), 10×15 cm with a loading of 400 nmol cm^−2. Solutions of 0.3 M Fmoc-AA-OH and 0.3 M Oxyma Pure were prepared in N-methyl-2-pyrrolidone (NMP). The activator solution consisted of 0.3 M DIC and 0.3 M of 2,4,6-trimethylpyridine (Collidine) in NMP. The capping solution consisted of a solution of 1 M acetic anhydride and 0.05 M of 4-dimethylaminopyridine (DMAP) in NMP. The deprotection solution consisted of 20% piperidine in NMP. AA couplings were performed 1 h,4 times. Deprotection of the Fmoc groups was performed 15min,2 times. Membrane washing between couplings or deprotections was performed with NMP and ethanol. Elongation of peptides in cellulose membrane was started by coupling first the Fmoc-PEG(9)-OH (Iris Biotech) and the subsequent mixture of Fmoc-Gly-OH (25%) and Boc-Gly-OH (75%) to lower the total loading of the membrane. Afterwards, the resin was capped with the capping solution and extensively washed and soaked in bromophenol blue (BPB) as a quality control to reveal the SPOTS with a functional amino group. Then, we coupled the quasi-orthogonal group Fmoc-Glu-PP, and carried out the rest of the synthesis until peptide completion. The cellulose bound linear peptides were finally treated with a solution of 95% DCM, 3% TIPS and 2% TFA 3 times, 20 min. to remove the quasi-orthogonal group. Afterwards, the membrane was washed 5 times with DCM and neutralized with 5% DIPEA in DCM. The membrane was then washed 5 more times with DCM, 5 times with NMP and cyclized with 0.3M PyAOP and 0.3M of DIPEA in DMF for 3 h or overnight. Finally, the membrane was dried with DCM and the side-chain protecting groups were cleaved with the standard deprotection cocktail (95% TFA, 2.5% H2O and 2.5% TIPS) or with reagent K [TFA 82.5%, phenol 5%, H2O 5%, thioanisole 5% and 1,2-ethanedithiol (EDT) 2.5%] for 3 h.
# SPOT membrane screening. Membranes were incubated with PBS pH 7.2+0.5% bovine serum albumin (BSA) for 1 h. After the incubation period, the membrane was dried and scanned with an Amershan Typhoon scanner, at 400V, Cy3 wavelength (532 nm). A TIF file of the screening and a file with the blank values were generated using the Image Quant software. Afterwards, a solution of 50 nM of TAMRA labelled PSD-95-PDZ2 domain was prepared in PBS pH 7.2+0.5% BSA and was added to the membrane. The membrane was left incubating in a Polymax 1040 rocking table for 1 h protected from the light. Passed the incubation time, the excess of labelled protein was removed by washing the membrane 3 times with PBS+0.5% BSA. Finally, the membrane fluorescence values were measured with the Amershan Typhoon scanner at 400V, Cy3 wavelength (532 nm). Using the Image Quant software, the TIF image of the screening and a file with the fluorescence values of the peptides with the TAMRA labelled PSD-95-PDZ2 were generated. The blank was then subtracted from the fluorescence values of the peptides screened against the TAMRA labelled PSD-95-PDZ2.
# A deep mutational scan was performed on the WT scaffold, exchanging each AA to the remaining 19 L-AAs. Each array contained three copies of the individual peptides as technical replicates. Additionally, three controls were included in the design: the cyclic nNOS β-hairpin WT control (positive control), a linear nNOS peptide (cyclization control) and a cyclic nNOS β-hairpin with a F111V substitution (negative control previously tested in FP competition assays). For array screening, a mutation in PSD-95-PDZ2 residue V178 (PSD-95-PDZ2-V178C) was introduced, which was subsequently labelled with TAMRA maleimide. […]
Structure (SMILES),Ki (PSD-95-PDZ2 [1]) [nM],Relative Ki (Ki mut/Ki WT) (PSD-95-PDZ2 [1]),Normalized SPOT fluorescence (Mut/WT) (PSD-95-PDZ2 [2])
CC[C@H](C)[C@@H]1NC(=O)[C@H]([C@@H](C)O)NC(=O)[C@H](CCCCN)NC(=O)[C@@H]2CCCN2C(=O)[C@H]([C@@H](C)O)NC(=O)CNC(=O)[C@H](CC(=O)O)NC(=O)CNC(=O)[C@H](Cc2c[nH]cn2)NC(=O)[C@H](Cc2ccccc2)NC(=O)[C@H]([C@@H](C)O)NC(=O)[C@H]([C@@H](C)O)NC(=O)[C@H](CCC(=O)O)NC(=O)[C@H](CC(C)C)NC(=O)[C@H](Cc2c[nH]cn2)NC(=O)[C@H]([C@@H](C)O)NC(=O)[C@H](CCC(N)=O)NC(=O)CNC(=O)[C@H]2CCCN2C(=O)[C@H](CCC(N)=O)NC(=O)[C@H]([C@@H](C)O)NC(=O)[C@H](C(C)C)NC(=O)[C@H](CCCNC(=N)N)NC1=O [compound 20] (cyclo(THLETTFHGDGTPKTIRVTQ[dP]GQ)),1980,1.32,1.49
CC[C@H](C)[C@@H]1NC(=O)[C@H]([C@@H](C)O)NC(=O)[C@H](CCCCN)NC(=O)[C@@H]2CCCN2C(=O)[C@H]([C@@H](C)O)NC(=O)CNC(=O)[C@H](CC(=O)O)NC(=O)CNC(=O)[C@H]([C@@H](C)O)NC(=O)[C@H](C(C)C)NC(=O)[C@H]([C@@H](C)O)NC(=O)[C@H]([C@@H](C)O)NC(=O)[C@H](CCC(=O)O)NC(=O)[C@H](CC(C)C)NC(=O)[C@H](Cc2c[nH]cn2)NC(=O)[C@H]([C@@H](C)O)NC(=O)[C@H](CCC(N)=O)NC(=O)CNC(=O)[C@H]2CCCN2C(=O)[C@H](CCC(N)=O)NC(=O)[C@H]([C@@H](C)O)NC(=O)[C@H](C(C)C)NC(=O)[C@H](CCCNC(=N)N)NC1=O [compound 21] (cyclo(THLETTVTGDGTPKTIRVTQ[dP]GQ)),,51.60,0.05
CC[C@H](C)[C@@H]1NC(=O)[C@H]([C@@H](C)O)NC(=O)[C@H](CCCCN)NC(=O)[C@@H]2CCCN2C(=O)[C@H]([C@@H](C)O)NC(=O)CNC(=O)[C@H](CC(=O)O)NC(=O)CNC(=O)[C@H]([C@@H](C)O)NC(=O)[C@H](Cc2ccccc2)NC(=O)[C@H]([C@@H](C)O)NC(=O)[C@H]([C@@H](C)O)NC(=O)[C@H](CCC(=O)O)NC(=O)[C@H](CC(C)C)NC(=O)[C@H](Cc2c[nH]cn2)NC(=O)[C@H](Cc2ccc(O)cc2)NC(=O)[C@H](CCC(N)=O)NC(=O)CNC(=O)[C@H]2CCCN2C(=O)[C@H](CCC(N)=O)NC(=O)[C@H]([C@@H](C)O)NC(=O)[C@H](C(C)C)NC(=O)[C@H](CCCNC(=N)N)NC1=O [compound 24] (cyclo(YHLETTFTGDGTPKTIRVTQ[dP]GQ)),1470,0.98,1.32
CC[C@H](C)[C@@H]1NC(=O)[C@H]([C@@H](C)O)NC(=O)[C@H](CCCCN)NC(=O)[C@@H]2CCCN2C(=O)[C@H]([C@@H](C)O)NC(=O)[C@@H]2CCCN2C(=O)[C@H](CC(=O)O)NC(=O)CNC(=O)[C@H]([C@@H](C)O)NC(=O)[C@H](Cc2ccccc2)NC(=O)[C@H]([C@@H](C)O)NC(=O)[C@H]([C@@H](C)O)NC(=O)[C@H](CCC(=O)O)NC(=O)[C@H](CC(C)C)NC(=O)[C@H](Cc2c[nH]cn2)NC(=O)[C@H]([C@@H](C)O)NC(=O)[C@H](CCC(N)=O)NC(=O)CNC(=O)[C@H]2CCCN2C(=O)[C@H](CCC(N)=O)NC(=O)[C@H]([C@@H](C)O)NC(=O)[C@H](C(C)C)NC(=O)[C@H](CCCNC(=N)N)NC1=O [compound 30] (cyclo(THLETTFTGDPTPKTIRVTQ[dP]GQ)),420,0.28,2.33

# Now from value to compound:
Ki (PSD-95-PDZ2 [1]) [nM],Relative Ki (Ki mut/Ki WT) (PSD-95-PDZ2 [1]),Normalized SPOT fluorescence (Mut/WT) (PSD-95-PDZ2 [2]),Structure (SMILES)
480,0.32,1.85,CC[C@H](C)[C@@H]1NC(=O)[C@H]([C@@H](C)O)NC(=O)[C@H](CCCCN)NC(=O)[C@@H]2CCCN2C(=O)[C@H](CC(=O)O)NC(=O)CNC(=O)[C@H](CC(=O)O)NC(=O)CNC(=O)[C@H]([C@@H](C)O)NC(=O)[C@H](Cc2ccccc2)NC(=O)[C@H]([C@@H](C)O)NC(=O)[C@H]([C@@H](C)O)NC(=O)[C@H](CCC(=O)O)NC(=O)[C@H](CC(C)C)NC(=O)[C@H](Cc2c[nH]cn2)NC(=O)[C@H]([C@@H](C)O)NC(=O)[C@H](CCC(N)=O)NC(=O)CNC(=O)[C@H]2CCCN2C(=O)[C@H](CCC(N)=O)NC(=O)[C@H]([C@@H](C)O)NC(=O)[C@H](C(C)C)NC(=O)[C@H](CCCNC(=N)N)NC1=O [compound 32] (cyclo(THLETTFTGDGDPKTIRVTQ[dP]GQ))
420,0.28,1.37,CC[C@H](C)[C@@H]1NC(=O)[C@H]([C@@H](C)O)NC(=O)[C@H](CCCCN)NC(=O)[C@@H]2CCCN2C(=O)[C@H](CCC(=O)O)NC(=O)CNC(=O)[C@H](CC(=O)O)NC(=O)CNC(=O)[C@H]([C@@H](C)O)NC(=O)[C@H](Cc2ccccc2)NC(=O)[C@H]([C@@H](C)O)NC(=O)[C@H]([C@@H](C)O)NC(=O)[C@H](CCC(=O)O)NC(=O)[C@H](CC(C)C)NC(=O)[C@H](Cc2c[nH]cn2)NC(=O)[C@H]([C@@H](C)O)NC(=O)[C@H](CCC(N)=O)NC(=O)CNC(=O)[C@H]2CCCN2C(=O)[C@H](CCC(N)=O)NC(=O)[C@H]([C@@H](C)O)NC(=O)[C@H](C(C)C)NC(=O)[C@H](CCCNC(=N)N)NC1=O [compound 33] (cyclo(THLETTFTGDGEPKTIRVTQ[dP]GQ))
,2.51,2.00,CC[C@H](C)[C@@H]1NC(=O)[C@H]([C@@H](C)O)NC(=O)[C@H](CCCCN)NC(=O)[C@@H]2CCCN2C(=O)[C@H]([C@@H](C)O)NC(=O)CNC(=O)[C@H](CC(=O)O)NC(=O)CNC(=O)[C@H](CCSC)NC(=O)[C@H](Cc2ccccc2)NC(=O)[C@H]([C@@H](C)O)NC(=O)[C@H]([C@@H](C)O)NC(=O)[C@H](CCC(=O)O)NC(=O)[C@H](CC(C)C)NC(=O)[C@H](Cc2c[nH]cn2)NC(=O)[C@H]([C@@H](C)O)NC(=O)[C@H](CCC(N)=O)NC(=O)CNC(=O)[C@H]2CCCN2C(=O)[C@H](CCC(N)=O)NC(=O)[C@H]([C@@H](C)O)NC(=O)[C@H](C(C)C)NC(=O)[C@H](CCCNC(=N)N)NC1=O [compound 37]
,1.31,3.50,CC[C@H](C)[C@@H]1NC(=O)[C@H]([C@@H](C)O)NC(=O)[C@H](CCCCN)NC(=O)[C@@H]2CCCN2C(=O)[C@H]([C@@H](C)O)NC(=O)CNC(=O)[C@H](CC(=O)O)NC(=O)CNC(=O)[C@H]([C@@H](C)O)NC(=O)[C@H](Cc2ccccc2)NC(=O)[C@H]([C@@H](C)O)NC(=O)[C@H]([C@@H](C)O)NC(=O)[C@H](CCC(=O)O)NC(=O)[C@H](CC(C)C)NC(=O)[C@H](Cc2c[nH]cn2)NC(=O)[C@H]([C@@H](C)O)NC(=O)[C@H](CCC(N)=O)NC(=O)CNC(=O)[C@H]2CCCN2C(=O)[C@H](CCCNC(=N)N)NC(=O)[C@H](CCCNC(=N)N)NC(=O)[C@H](C(C)C)NC(=O)[C@H](CCCNC(=N)N)NC1=O [compound 45] (cyclo(THLETTFTGDGTPKTIRVRR[dP]GQ))
